# Assays:
# [1] = test system: Enterobacter gergoviae ATCC 33028; assay: Liquid broth assay (MIC and checkerboard) against Enterobacter gergoviae; format: cell-based; conditions: Pluralibacter gergoviae, ATCC33028, component by itself, 30° C., 24 hours, OD600, <25% growth vs control, read-out: minimal inhibitory concentration (MIC)
# Excerpt: (§1) Naturally derived antimicrobial systems were made, as shown below by combining the beta carboline alkaloid and phenolic acid. Two pools were set up and each pool contained 1 organism. The strains involved were Enterobacter gergoviae ATCC 33028 of the family Pluralibacter gergoviae, a Gram-negative and Aspergillus brasiliensis ATCC 16404. The FIC test range was 16 times greater than the projected MIC for each sample.
# (§2) The differing behaviors of inhibitory antimicrobials in isolation and mixtures have been widely explored using the concept of the Fractional Concentration and Fractional Inhibitory Concentration (FIC). See for instance JRW Lambert and R Lambert, J. Appl. Microbiol 95, 734 (2003); T. Jadavji, CG Prober and R Cheung, Antibacterial Agents and Chemotherapy 26, 91 (1984), and WO 2004/006876. MIC is the minimum inhibitory concentration a component prevents visible growth of a microbe. The FC and FIC parameters can be defined as follows: […]
# (§3) Liquid broth assays (MIC and checkerboard) were conducted to identify the minimum concentration(s) of individual and binary combinations of natural preservation materials. […] Each of the two-preservation chemical/broth mixes was then combined in a third 96 well plate at varying concentrations and then inoculated with 1-5x106 microorganisms and incubated at 30° C. for 24 hours, after which optical densities at OD600 nm were measured.
# [2] = test system: Aspergillus brasiliensis ATCC 16404; assay: Liquid broth assay (MIC and checkerboard) against Aspergillus brasiliensis; format: cell-based; conditions: ATCC16404, component by itself, 30° C., 24 hours, OD600, <25% growth vs control
# Excerpt: as §1, §2, §3
structure (smiles),measurement,setting,value
"COc1cc(C(=O)O)cc(OC)c1O [Syringic Acid, 4-Hydroxy-3,5-dimethoxybenzoic acid]",MIC,[1],> 50 mg/mL
same,MIC,[2],> 50 mg/mL

# From patent US20250099357A1, “ANT[…] WITH BETA CARBOLINE ALKALOID AND PHENOLIC ACID AND CO[…]” (Conopco, Inc., d/b/a UNILEVER, priority 2021, published 2025)
